In patent US5219863A, “Angiotensin II antagonizing compounds containing a 1,5-naphthyridine or a quinoline moiety” (Imperial Chemical Industries PLC, priority 1990, dated 1993):
Where a name gives a salt, the structure may show the parent alone.

Assays:
[1] = test system: pressor responses induced by AII; assay: Test C: antagonism of AII-induced pressor responses in terminally-anaesthetised or conscious rats; type: in vivo; settings: iv, rat, i.v. administration, AII-induced pressor response
Source text: (§1) The antagonism of one or more of the physiological actions of AII and, in particular, the antagonism of the interaction of AII with the receptors which mediate its effects on a target tissue, may be assessed using one or more of the following, routine laboratory procedures.
Test C: This in vivo test involves using terminally-anaesthetised or conscious rats in which an arterial catheter has been implanted under anaesthesia for the measurement of changes in blood pressure. The AII antagonistic effects of the test compound following oral or parenteral administration, are assessed against pressor responses induced by AII. To ensure that the effect is specific the effect of the test compound on vasopressin-induced pressor responses may also be determined in the same preparation.

[2] = target: T1, angiotensin II (AII) receptors, guinea pig adrenal gland membrane (Cavia porcellus, UniProt Q9WV26); assay: Test A: displacement of radiolabelled AII binding to guinea pig adrenal cell surface membranes; settings: in vitro, read-out: IC50 (concentration for 50% displacement of radiolabelled AII binding)
T1 construct: from tissue; host or cells: guinea pig adrenal gland, cell surface membrane fraction
T1 sequence (Q9WV26 1-359): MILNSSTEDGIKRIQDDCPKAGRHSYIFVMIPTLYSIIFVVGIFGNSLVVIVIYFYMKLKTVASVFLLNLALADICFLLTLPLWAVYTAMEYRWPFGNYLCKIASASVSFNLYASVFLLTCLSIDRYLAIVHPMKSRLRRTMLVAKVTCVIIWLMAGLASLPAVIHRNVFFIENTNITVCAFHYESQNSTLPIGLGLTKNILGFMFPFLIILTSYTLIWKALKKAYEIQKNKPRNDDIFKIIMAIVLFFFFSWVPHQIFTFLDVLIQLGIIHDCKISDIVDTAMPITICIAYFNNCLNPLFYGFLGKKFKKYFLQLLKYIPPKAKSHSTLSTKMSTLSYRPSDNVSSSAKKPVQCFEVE
Experimental: as §1
Test A: This in vitro procedure involves the incubation of the test compound initially at a concentration of 100 micromolar (or less) in a buffered mixture containing fixed concentrations of radiolabelled AII and a cell surface membrane fraction prepared from a suitable angiotensin target tissue. In this test, the source of cell surface membranes is the guinea pig adrenal gland which is well known to response to AII. Interaction of the radiolabelled AII with its receptors (assessed as radiolabel bound to the particulate membrane fraction following removal of unbound radiolabel by a rapid filtration procedure such as is standard in such studies) is antagonized by compounds which also bind to the membrane receptor sites and the degree of antagonism (observed in the test as displacement of membrane-bound radioactivity) is determined readily by comparing the receptor-bound radioactivity in the presence of the test compound at the specified test concentration with a control value determined in the absence of the test compound. […]

IC50 [2]: 18 nM
Structure (SMILES): CCNC(=O)OCCOc1ccc2nc(CC)cc(OCc3ccc(-c4ccccc4-c4nn[nH]n4)cc3)c2n1 [Example 2, 2-ethyl-6-(2-ethylaminocarbonyloxy)ethoxy)-4-[(2'-(1H-tetrazol-5-yl)biphenyl-4-yl)methoxy]-1,5-naphthyridine hydrochloride]
ED50 [1]: 0.08 mg/kg
